Measured values from patent US12077503B2, “Substituted cyclic amides and their use as herbicides” (FMC CORPORATION, priority 2015, dated 2024).

Experiments:
Format in all cases: in vivo
[1] = test system: ivy-leaved morning glory (Ipomoea hederacea); test: Test G Pre-Emergence Protocol; settings: Ipomoea, pre-emergence, 312 h, evaluated after 13 days; for pest or weed control at 15.625 g/ha: 15.625 g ai/ha; for pest or weed control at 15.625 g/ha / pest or weed control at 250 g/ha: read-out: Morningglory, Ivy-leaved damage rating (100=total damage to plant; 0=no damage to plant); for pest or weed control at 62.5 g/ha: 62.5 g ai/ha, 100=total damage to plant, 0=no damage to plant, read-out: Morningglory, Ivy-leaved damage rating; for pest or weed control at 250 g/ha: 250 g ai/ha
How it was run: (§1)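 Seeds were sown in standard soil and kept one day in a glasshouse (24/16° C day/night, 14 h light, 65% humidity), then sprayed with compound in acetone/water (50:50) containing 0.5% Tween 20 at 15.625, 62.5 or 250 g/ha. Damage was scored after 13 days (0 = none, 100 = total).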

[2] = test system: velvetleaf (Abutilon theophrasti); test: Test G Pre-Emergence Protocol; settings: Abutilon theophrasti, pre-emergence, 312 h, evaluated after 13 days; for pest or weed control at 15.625 g/ha: 15.625 g ai/ha; for pest or weed control at 15.625 g/ha / pest or weed control at 250 g/ha: read-out: Velvetleaf damage rating (100=total damage to plant; 0=no damage to plant); for pest or weed control at 62.5 g/ha: 62.5 g ai/ha, 100=total damage to plant, 0=no damage to plant, read-out: Velvetleaf damage rating; for pest or weed control at 250 g/ha: 250 g ai/ha
How it was run: as §1

[3] = test system: barnyardgrass (Echinochloa crus-galli); test: Test G Pre-Emergence Protocol; settings: Echinochloa crus-galli, pre-emergence, 312 h, evaluated after 13 days; for pest or weed control at 15.625 g/ha: 15.625 g ai/ha; for pest or weed control at 15.625 g/ha / pest or weed control at 250 g/ha: read-out: Barnyardgrass damage rating (100=total damage to plant; 0=no damage to plant); for pest or weed control at 62.5 g/ha: 62.5 g ai/ha, 100=total damage to plant, 0=no damage to plant, read-out: Barnyardgrass damage rating; for pest or weed control at 250 g/ha: 250 g ai/ha
How it was run: as §1

[4] = test system: redroot pigweed (Amaranthus retroflexus); test: Test G Pre-Emergence Protocol; settings: Amaranthus retroflexus, pre-emergence, 312 h, evaluated after 13 days; for pest or weed control at 15.625 g/ha: 15.625 g ai/ha; for pest or weed control at 15.625 g/ha / pest or weed control at 250 g/ha: read-out: Pigweed, Redroot damage rating (100=total damage to plant; 0=no damage to plant); for pest or weed control at 62.5 g/ha: 62.5 g ai/ha, 100=total damage to plant, 0=no damage to plant, read-out: Pigweed, Redroot damage rating; for pest or weed control at 250 g/ha: 250 g ai/ha
How it was run: as §1

[5] = test system: corn (Zea mays); test: Test G Pre-Emergence Protocol; settings: Zea mays, pre-emergence, 312 h, evaluated after 13 days; for plant injury at 15.625 g/ha: 15.625 g ai/ha; for plant injury at 15.625 g/ha / plant injury at 250 g/ha: read-out: Corn damage rating (100=total damage to plant; 0=no damage to plant); for plant injury at 62.5 g/ha: 62.5 g ai/ha, 100=total damage to plant, 0=no damage to plant, read-out: Corn damage rating; for plant injury at 250 g/ha: 250 g ai/ha
How it was run: as §1

[6] = test system: giant foxtail (Setaria faberi); test: Test G Pre-Emergence Protocol; settings: Setaria faberi, pre-emergence, 312 h, evaluated after 13 days; for pest or weed control at 15.625 g/ha: 15.625 g ai/ha; for pest or weed control at 15.625 g/ha / pest or weed control at 250 g/ha: read-out: Foxtail, Giant damage rating (100=total damage to plant; 0=no damage to plant); for pest or weed control at 62.5 g/ha: 62.5 g ai/ha, 100=total damage to plant, 0=no damage to plant, read-out: Foxtail, Giant damage rating; for pest or weed control at 250 g/ha: 250 g ai/ha
How it was run: as §1

[7] = test system: ivy-leaved morning glory (Ipomoea hederacea); test: Test G Post-Emergence Protocol; settings: Ipomoea, post-emergence, 312 h, read-out: Morningglory, Ivy-leaved damage rating; for pest or weed control at 15.625 g/ha: 15.625 g ai/ha, evaluated after 13 days (100=total damage to plant; 0=no damage to plant); for pest or weed control at 62.5 g/ha: 62.5 g ai/ha; for pest or weed control at 62.5 g/ha / pest or weed control at 250 g/ha: evaluated after 13 days, 100=total damage to plant, 0=no damage to plant; for pest or weed control at 250 g/ha: 250 g ai/ha
How it was run: (§2)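 Seedlings grown 8 days in soil in a glasshouse (24/16 °C day/night, 14 h light, 65% humidity) were sprayed post-emergence with compound in acetone/water 50:50 plus 0.5% Tween 20 at 15.625, 62.5 or 250 g/ha. Damage was scored after 13 days on a 0–100 scale (100 = total damage).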

[8] = test system: velvetleaf (Abutilon theophrasti); test: Test G Post-Emergence Protocol; settings: Abutilon theophrasti, post-emergence, 312 h, read-out: Velvetleaf damage rating; for pest or weed control at 15.625 g/ha: 15.625 g ai/ha, evaluated after 13 days (100=total damage to plant; 0=no damage to plant); for pest or weed control at 62.5 g/ha: 62.5 g ai/ha; for pest or weed control at 62.5 g/ha / pest or weed control at 250 g/ha: evaluated after 13 days, 100=total damage to plant, 0=no damage to plant; for pest or weed control at 250 g/ha: 250 g ai/ha
How it was run: as §2

[9] = test system: barnyardgrass (Echinochloa crus-galli); test: Test G Post-Emergence Protocol; settings: Echinochloa crus-galli, post-emergence, 312 h, read-out: Barnyardgrass damage rating; for pest or weed control at 15.625 g/ha: 15.625 g ai/ha, evaluated after 13 days (100=total damage to plant; 0=no damage to plant); for pest or weed control at 62.5 g/ha: 62.5 g ai/ha; for pest or weed control at 62.5 g/ha / pest or weed control at 250 g/ha: evaluated after 13 days, 100=total damage to plant, 0=no damage to plant; for pest or weed control at 250 g/ha: 250 g ai/ha
How it was run: as §2

[10] = test system: redroot pigweed (Amaranthus retroflexus); test: Test G Post-Emergence Protocol; settings: Amaranthus retroflexus, post-emergence, 312 h, read-out: Pigweed, Redroot damage rating; for pest or weed control at 15.625 g/ha: 15.625 g ai/ha, evaluated after 13 days (100=total damage to plant; 0=no damage to plant); for pest or weed control at 62.5 g/ha: 62.5 g ai/ha; for pest or weed control at 62.5 g/ha / pest or weed control at 250 g/ha: evaluated after 13 days, 100=total damage to plant, 0=no damage to plant; for pest or weed control at 250 g/ha: 250 g ai/ha
How it was run: as §2

[11] = test system: corn (Zea mays); test: Test G Post-Emergence Protocol; settings: Zea mays, post-emergence, 312 h, read-out: Corn damage rating; for plant injury at 15.625 g/ha: 15.625 g ai/ha, evaluated after 13 days (100=total damage to plant; 0=no damage to plant); for plant injury at 62.5 g/ha: 62.5 g ai/ha; for plant injury at 62.5 g/ha / plant injury at 250 g/ha: evaluated after 13 days, 100=total damage to plant, 0=no damage to plant; for plant injury at 250 g/ha: 250 g ai/ha
How it was run: as §2

[12] = test system: giant foxtail (Setaria faberi); test: Test G Post-Emergence Protocol; settings: Setaria faberi, post-emergence, 312 h, read-out: Foxtail, Giant damage rating; for pest or weed control at 15.625 g/ha: 15.625 g ai/ha, evaluated after 13 days (100=total damage to plant; 0=no damage to plant); for pest or weed control at 62.5 g/ha: 62.5 g ai/ha; for pest or weed control at 62.5 g/ha / pest or weed control at 250 g/ha: evaluated after 13 days, 100=total damage to plant, 0=no damage to plant; for pest or weed control at 250 g/ha: 250 g ai/ha
How it was run: as §2

| Structure (SMILES) | pest or weed control at 15.625 g/ha [1] [%] | pest or weed control at 62.5 g/ha [1] [%] | pest or weed control at 250 g/ha [1] [%] | pest or weed control at 15.625 g/ha [2] [%] | pest or weed control at 62.5 g/ha [2] [%] | pest or weed control at 250 g/ha [2] [%] | pest or weed control at 15.625 g/ha [3] [%] | pest or weed control at 62.5 g/ha [3] [%] | pest or weed control at 250 g/ha [3] [%] | pest or weed control at 15.625 g/ha [4] [%] | pest or weed control at 62.5 g/ha [4] [%] | pest or weed control at 250 g/ha [4] [%] | plant injury at 15.625 g/ha [5] [%] | plant injury at 62.5 g/ha [5] [%] | plant injury at 250 g/ha [5] [%] | pest or weed control at 15.625 g/ha [6] [%] | pest or weed control at 62.5 g/ha [6] [%] | pest or weed control at 250 g/ha [6] [%] | pest or weed control at 15.625 g/ha [7] [%] | pest or weed control at 62.5 g/ha [7] [%] | further results |
| --- | --- | --- | --- | --- | --- | --- | --- | --- | --- | --- | --- | --- | --- | --- | --- | --- | --- | --- | --- | --- | --- |
| CN1C[C@H](c2cccc(C(F)(F)F)c2)[C@@H](C(=O)Nc2ccc3cccnc3n2)C1=O (racemic) [Compound 1676] | 0 | 0 | 0 | 0 | 0 | 0 | 0 | 0 | 0 | 0 | 0 | 0 | 0 | 0 | 0 | 0 | 0 | 0 | 0 | 0 | pest or weed control at 250 g/ha [7]: 0%; pest or weed control at 15.625 g/ha [8]: 0%; pest or weed control at 62.5 g/ha [8]: 0%; pest or weed control at 250 g/ha [8]: 0%; pest or weed control at 15.625 g/ha [9]: 0%; pest or weed control at 62.5 g/ha [9]: 0%; pest or weed control at 250 g/ha [9]: 0%; pest or weed control at 15.625 g/ha [10]: 0%; pest or weed control at 62.5 g/ha [10]: 0%; pest or weed control at 250 g/ha [10]: 0%; plant injury at 15.625 g/ha [11]: 0%; plant injury at 62.5 g/ha [11]: 0%; plant injury at 250 g/ha [11]: 0%; pest or weed control at 15.625 g/ha [12]: 0%; pest or weed control at 62.5 g/ha [12]: 0%; pest or weed control at 250 g/ha [12]: 0% |
| CN1C[C@H](c2ccc(C(F)(F)F)cc2)[C@@H](C(=O)Nc2cccc(F)c2S(C)(=O)=O)C1=O (racemic) [Compound 1680] | 0 | 0 | 0 | 10 | 10 | 90 | 0 | 20 | 60 | 20 | 20 | 70 | 0 | 0 | 0 | 20 | 60 | 90 | 10 | 10 | pest or weed control at 250 g/ha [7]: 20%; pest or weed control at 15.625 g/ha [8]: 0%; pest or weed control at 62.5 g/ha [8]: 10%; pest or weed control at 250 g/ha [8]: 0%; pest or weed control at 15.625 g/ha [9]: 20%; pest or weed control at 62.5 g/ha [9]: 20%; pest or weed control at 250 g/ha [9]: 50%; pest or weed control at 15.625 g/ha [10]: 50%; pest or weed control at 62.5 g/ha [10]: 60%; pest or weed control at 250 g/ha [10]: 60%; plant injury at 15.625 g/ha [11]: 0%; plant injury at 62.5 g/ha [11]: 0%; plant injury at 250 g/ha [11]: 0%; pest or weed control at 15.625 g/ha [12]: 30%; pest or weed control at 62.5 g/ha [12]: 80%; pest or weed control at 250 g/ha [12]: 80% |
